How the values were obtained:
Assay in all cases: relative viability (nuclei count vs DMSO), 5 days (fraction); higher = more cells survive
ABC-1 = tested on: ABC-1
Summary of the method: (§1)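 After 5 days of treatment, lung cancer cells in 1536-well plates were fixed and stained in a single step (final 0.05% Triton X-100, 1% formaldehyde, 1 ug/ml Hoechst) and their nuclei counted on 4× images. Treatment had been applied by pin tool the day after seeding as one drug alone or as a fixed anchor-drug dose with five library-drug doses (not always all listed) in √10 steps. Relative viability is the nuclei count of treated wells divided by that of vehicle wells, and values are medians of duplicate plates.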

COR-L23 = tested on: COR-L23
Summary of the method: as §1

EPLC-272H = tested on: EPLC-272H
Summary of the method: as §1

HARA = tested on: HARA
Summary of the method: as §1

HCC-15 = tested on: HCC-15
Summary of the method: as §1

HCC-44 = tested on: HCC-44
Summary of the method: as §1

HOP-62 = tested on: HOP-62
Summary of the method: as §1

LC-2-ad = tested on: LC-2-ad
Summary of the method: as §1

LU99A = tested on: LU99A
Summary of the method: as §1

NCI-H1355 = tested on: NCI-H1355
Summary of the method: as §1

NCI-H1651 = tested on: NCI-H1651
Summary of the method: as §1

NCI-H1915 = tested on: NCI-H1915
Summary of the method: as §1

NCI-H1993 = tested on: NCI-H1993
Summary of the method: as §1

NCI-H2023 = tested on: NCI-H2023
Summary of the method: as §1

NCI-H2085 = tested on: NCI-H2085
Summary of the method: as §1

NCI-H2126 = tested on: NCI-H2126
Summary of the method: as §1

NCI-H2347 = tested on: NCI-H2347
Summary of the method: as §1

NCI-H650 = tested on: NCI-H650
Summary of the method: as §1

NCI-H838 = tested on: NCI-H838
Summary of the method: as §1

PC-14 = tested on: PC-14
Summary of the method: as §1

SW 1573 = tested on: SW 1573
Summary of the method: as §1

UMC-11 = tested on: UMC-11
Summary of the method: as §1

CC(=O)O[C@@]12CO[C@@H]1C[C@H](O)[C@@]1(C)C(=O)[C@H](O)C3=C(C)[C@@H](OC(=O)[C@H](O)[C@@H](NC(=O)OC(C)(C)C)c4ccccc4)C[C@@](O)([C@@H](OC(=O)c4ccccc4)[C@H]21)C3(C)C [Docetaxel] + Cc1cc(Nc2cc(N3CCN(C)CC3)nc(Sc3ccc(NC(=O)C4CC4)cc3)n2)n[nH]1 [Tozasertib] (partner 0.1 µM)
relative viability (ABC-1; first compound 0.0002 µM): 0.15
relative viability (ABC-1; first compound 0.000632 µM): 0.191
relative viability (ABC-1; first compound 0.002 µM): 0.195
relative viability (ABC-1; first compound 0.006325 µM): 0.159
relative viability (ABC-1; first compound 0.02 µM): 0.218
relative viability (COR-L23; first compound 0.0002 µM): 0.199
relative viability (COR-L23; first compound 0.000632 µM): 0.21
relative viability (COR-L23; first compound 0.002 µM): 0.141
relative viability (COR-L23; first compound 0.006325 µM): 0.153
relative viability (COR-L23; first compound 0.02 µM): 0.133
relative viability (EPLC-272H; first compound 0.0002 µM): 0.219
relative viability (EPLC-272H; first compound 0.000632 µM): 0.129
relative viability (EPLC-272H; first compound 0.002 µM): 0.132
relative viability (EPLC-272H; first compound 0.006325 µM): 0.0975
relative viability (EPLC-272H; first compound 0.02 µM): 0.104
relative viability (HARA; first compound 0.0002 µM): 0.0918
relative viability (HARA; first compound 0.000632 µM): 0.102
relative viability (HARA; first compound 0.002 µM): 0.0951
relative viability (HARA; first compound 0.006325 µM): 0.0945
relative viability (HARA; first compound 0.02 µM): 0.0738
relative viability (HCC-15; first compound 0.0002 µM): 0.391
relative viability (HCC-15; first compound 0.000632 µM): 0.266
relative viability (HCC-15; first compound 0.002 µM): 0.174
relative viability (HCC-15; first compound 0.006325 µM): 0.239
relative viability (HCC-15; first compound 0.02 µM): 0.135
relative viability (HCC-44; first compound 0.0002 µM): 0.93
relative viability (HCC-44; first compound 0.000632 µM): 0.442
relative viability (HCC-44; first compound 0.002 µM): 0.41
relative viability (HCC-44; first compound 0.006325 µM): 0.295
relative viability (HCC-44; first compound 0.02 µM): 0.158
relative viability (HOP-62; first compound 0.0002 µM): 0.353
relative viability (HOP-62; first compound 0.000632 µM): 0.401
relative viability (HOP-62; first compound 0.002 µM): 0.281
relative viability (HOP-62; first compound 0.006325 µM): 0.277
relative viability (LC-2-ad; first compound 0.0002 µM): 0.487
relative viability (LC-2-ad; first compound 0.000632 µM): 0.395
relative viability (LC-2-ad; first compound 0.002 µM): 0.302
relative viability (LC-2-ad; first compound 0.006325 µM): 0.37
relative viability (LU99A; first compound 0.0002 µM): 0.262
relative viability (LU99A; first compound 0.000632 µM): 0.289
relative viability (LU99A; first compound 0.002 µM): 0.236
relative viability (LU99A; first compound 0.006325 µM): 0.307
relative viability (LU99A; first compound 0.02 µM): 0.211
relative viability (NCI-H1355; first compound 0.0002 µM): 0.453
relative viability (NCI-H1355; first compound 0.000632 µM): 0.43
relative viability (NCI-H1355; first compound 0.002 µM): 0.271
relative viability (NCI-H1355; first compound 0.006325 µM): 0.263
relative viability (NCI-H1355; first compound 0.02 µM): 0.202
relative viability (NCI-H1651; first compound 0.0002 µM): 0.716
relative viability (NCI-H1651; first compound 0.000632 µM): 0.717
relative viability (NCI-H1651; first compound 0.002 µM): 0.187
relative viability (NCI-H1651; first compound 0.006325 µM): 0.189
relative viability (NCI-H1915; first compound 0.0002 µM): 0.426
relative viability (NCI-H1915; first compound 0.000632 µM): 0.322
relative viability (NCI-H1915; first compound 0.002 µM): 0.247
relative viability (NCI-H1915; first compound 0.006325 µM): 0.201
relative viability (NCI-H1915; first compound 0.02 µM): 0.142
relative viability (NCI-H1993; first compound 0.0002 µM): 0.644
relative viability (NCI-H1993; first compound 0.000632 µM): 0.592
relative viability (NCI-H1993; first compound 0.002 µM): 0.604
relative viability (NCI-H1993; first compound 0.006325 µM): 0.515
relative viability (NCI-H1993; first compound 0.02 µM): 0.586
relative viability (NCI-H2023; first compound 0.0002 µM): 0.317
relative viability (NCI-H2023; first compound 0.000632 µM): 0.288
relative viability (NCI-H2023; first compound 0.002 µM): 0.11
relative viability (NCI-H2023; first compound 0.006325 µM): 0.158
relative viability (NCI-H2023; first compound 0.02 µM): 0.0697
relative viability (NCI-H2085; first compound 0.0002 µM): 0.743
relative viability (NCI-H2085; first compound 0.000632 µM): 0.779
relative viability (NCI-H2085; first compound 0.002 µM): 0.664
relative viability (NCI-H2085; first compound 0.006325 µM): 0.481
relative viability (NCI-H2085; first compound 0.02 µM): 0.322
relative viability (NCI-H2126; first compound 0.0002 µM): 0.785
relative viability (NCI-H2126; first compound 0.000632 µM): 0.45
relative viability (NCI-H2126; first compound 0.002 µM): 0.359
relative viability (NCI-H2126; first compound 0.006325 µM): 0.354
relative viability (NCI-H2126; first compound 0.02 µM): 0.237
relative viability (NCI-H2347; first compound 0.0002 µM): 0.511
relative viability (NCI-H2347; first compound 0.000632 µM): 0.594
relative viability (NCI-H2347; first compound 0.002 µM): 0.441
relative viability (NCI-H2347; first compound 0.006325 µM): 0.293
relative viability (NCI-H2347; first compound 0.02 µM): 0.268
relative viability (NCI-H650; first compound 0.0002 µM): 0.666
relative viability (NCI-H650; first compound 0.000632 µM): 0.381
relative viability (NCI-H650; first compound 0.002 µM): 0.25
relative viability (NCI-H650; first compound 0.006325 µM): 0.25
relative viability (NCI-H650; first compound 0.02 µM): 0.182
relative viability (NCI-H838; first compound 0.0002 µM): 0.236
relative viability (NCI-H838; first compound 0.000632 µM): 0.27
relative viability (NCI-H838; first compound 0.002 µM): 0.258
relative viability (NCI-H838; first compound 0.006325 µM): 0.28
relative viability (NCI-H838; first compound 0.02 µM): 0.193
relative viability (PC-14; first compound 0.0002 µM): 0.534
relative viability (PC-14; first compound 0.000632 µM): 0.489
relative viability (PC-14; first compound 0.002 µM): 0.0877
relative viability (PC-14; first compound 0.006325 µM): 0.0613
relative viability (PC-14; first compound 0.02 µM): 0.0312
relative viability (SW 1573; first compound 0.0002 µM): 0.24
relative viability (SW 1573; first compound 0.000632 µM): 0.189
relative viability (SW 1573; first compound 0.002 µM): 0.256
relative viability (SW 1573; first compound 0.02 µM): 0.199
relative viability (UMC-11; first compound 0.0002 µM): 0.193
relative viability (UMC-11; first compound 0.000632 µM): 0.193
relative viability (UMC-11; first compound 0.002 µM): 0.218
relative viability (UMC-11; first compound 0.006325 µM): 0.227
relative viability (UMC-11; first compound 0.02 µM): 0.217

— the supplement of paper PMC10307832
